# In patent publication US20140200233A1, “USE OF MAD2L2 AS A STRATIFICATION MARKER IN THE TREATMENT OF BREAST TUMOURS WITH NOVEL PAN-CDK INHIBITORS” (BAYER INTELLECTUAL PROPERTY GMBH, priority 2011, published 2014):
# How the values were obtained:
# Format in all cases: cell-based
# [1] = system: NCI-H1563; experiment: Proliferation assay, Method 2 (Vybrant MTT); conditions: Homo sapiens, NCI-H1563 (non-small-cell lung carcinoma)
# [2] = system: BT-20; experiment: Proliferation assay, Method 2 (Vybrant MTT); conditions: Homo sapiens, BT-20 breast tumour cell line
# [3] = system: NCI-H2347; experiment: Proliferation assay, Method 2 (Vybrant MTT); conditions: Homo sapiens, NCI-H2347 (non-small-cell lung carcinoma)
# [4] = system: NCI-H226; experiment: Proliferation assay, Method 2 (Vybrant MTT); conditions: Homo sapiens, NCI-H226 (mesothelioma)
# [5] = system: MDA-MB-435s; experiment: Proliferation assay, Method 2 (Vybrant MTT); conditions: Homo sapiens, MDA-MB-435s breast tumour cell line
# [6] = system: NCI-H1048; experiment: Proliferation assay, Method 2 (Vybrant MTT); conditions: Homo sapiens, NCI-H1048 (small-cell lung carcinoma)
# [7] = system: MDA-MB-468; experiment: Proliferation assay, Method 2 (Vybrant MTT); conditions: Homo sapiens, MDA-MB-468 breast tumour cell line
# [8] = system: EVSA-T; experiment: Proliferation assay, Method 2 (Vybrant MTT); conditions: Homo sapiens, EVSA-T breast tumour cell line
# [9] = system: Hs 578T; experiment: Proliferation assay, Method 2 (Vybrant MTT); conditions: Homo sapiens, Hs 578T breast tumour cell line
# [10] = system: NCI-H1793; experiment: Proliferation assay, Method 2 (Vybrant MTT); conditions: Homo sapiens, NCI-H1793 (non-small-cell lung carcinoma)
# [11] = system: ChaGo-K-1; experiment: Proliferation assay, Method 2 (Vybrant MTT); conditions: Homo sapiens, ChaGo-K-1 (undifferentiated bronchial carcinoma)
# [12] = system: NCI-H2228; experiment: Proliferation assay, Method 2 (Vybrant MTT); conditions: Homo sapiens, NCI-H2228 (non-small-cell lung carcinoma)
# [13] = system: NCI-H661; experiment: Proliferation assay, Method 2 (Vybrant MTT); conditions: Homo sapiens, NCI-H661 (non-small-cell lung carcinoma)
# [14] = system: HeLa; experiment: Proliferation assay, Method 1 (crystal violet); conditions: Homo sapiens, 96 h, HeLa cervix carcinoma cell line, 4 days
# Experimental: (§1) This assay was used for the following cell lines: MCF 10A, SK-BR-3, MCF7, HCT 116, HT-29, SW480, Caco-2, MIAPaCa-2, DU145, PC3, HeLa, Caki2, 786-0, A-375, NCI-H460, NCI-H69, NCI-H1975, A549.
# (§2) Cultivated human tumour cells (originally obtained from ATCC, HeLa-MaTu and HeLa-MaTu-ADR, originally obtained from Epo GmbH, Berlin) were plated in a density of from 1000 to 5000 cells/measurement point, depending on the growth rate of the cell line, in a 96-well multititre plate in 200 μl of growth medium (DMEM/HAMS F12, 2 mM L-glutamine, 10% foetal calf serum). After 24 hours, the cells of one plate (zero-point plate) were stained with crystal violet (see below), while the medium of the other plates was replaced by fresh culture medium (200 μl) with added test substances in various concentrations (0 μM, and in the range of 0.01-30 μM; the final concentration of the solvent dimethyl sulphoxide was 0.5%). The cells were incubated in the presence of the test substances for 4 days. Cell proliferation was determined by staining the cells with crystal violet: the cells were fixated by addition of 20 μl/measuring point of an 11% strength glutaraldehyde solution for 15 min at room temperature. After the fixated cells had been washed three times with water, the plates were dried at room temperature. The cells were stained by addition of 100 μl/measuring point of a 0.1% strength crystal violet solution (pH adjusted to pH 3 by addition of acetic acid). After the stained cells had been washed three times with water, the plates were dried at room temperature. The dye was dissolved by addition of 100 μl/measuring point of a 10% strength acetic acid solution. The absorption was determined photometrically at a wavelength of 595 nm. The change in percent of the cell growth was calculated by normalizing the measured values to the absorption values of the zero-point plate (=0%) and the absorption of the untreated (0 μM) cells (=100%). The measured data were normalized to 0% inhibition (cell proliferation without inhibitor) and 100% inhibition (zero-point plate). The IC50 values were determined using a 4-parameter fit with the aid of proprietary software.
# [15] = system: DU145; experiment: Proliferation assay, Method 1 (crystal violet); conditions: Homo sapiens, DU-145, 96 h, DU145 prostate carcinoma cell line, 4 days
# Experimental: as §1, §2
# [16] = system: HT-29; experiment: Proliferation assay, Method 1 (crystal violet); conditions: Homo sapiens, 96 h, HT-29 colon carcinoma cell line, 4 days
# Experimental: as §1, §2
# [17] = system: SK-BR-3; experiment: Proliferation assay, Method 1 (crystal violet); conditions: Homo sapiens, 96 h, SK-BR-3 breast tumour cell line, 4 days
# Experimental: as §1, §2
# [18] = system: Caki2; experiment: Proliferation assay, Method 1 (crystal violet); conditions: Homo sapiens, CAKI-2, 96 h, Caki2 renal carcinoma cell line, 4 days
# Experimental: as §1, §2
# [19] = system: HCT 116; experiment: Proliferation assay, Method 1 (crystal violet); conditions: Homo sapiens, 96 h, HCT 116 colon carcinoma cell line, 4 days
# Experimental: as §1, §2
# [20] = system: SW480; experiment: Proliferation assay, Method 1 (crystal violet); conditions: Homo sapiens, 96 h, SW480 colon carcinoma cell line, 4 days
# Experimental: as §1, §2
# [21] = system: A-375; experiment: Proliferation assay, Method 1 (crystal violet); conditions: Homo sapiens, 96 h, A-375 melanoma cell line, 4 days
# Experimental: as §1, §2
# [22] = system: 786-O; experiment: Proliferation assay, Method 1 (crystal violet); conditions: Homo sapiens, 786-0, 96 h, 786-O renal carcinoma cell line, 4 days
# Experimental: as §1, §2
# [23] = system: MIAPaCa-2; experiment: Proliferation assay, Method 1 (crystal violet); conditions: Homo sapiens, MIA PaCa-2, 96 h, MIAPaCa-2 pancreas carcinoma cell line, 4 days
# Experimental: as §1, §2
# [24] = system: Caco-2; experiment: Proliferation assay, Method 1 (crystal violet); conditions: Homo sapiens, 96 h, Caco-2 colon carcinoma cell line, 4 days
# Experimental: as §1, §2
# [25] = system: MCF7; experiment: Proliferation assay, Method 1 (crystal violet); conditions: Homo sapiens, 96 h, MCF7 breast tumour cell line, 4 days
# Experimental: as §1, §2
# [26] = system: PC3; experiment: Proliferation assay, Method 1 (crystal violet); conditions: Homo sapiens, PC-3, 96 h, PC3 prostate carcinoma cell line, 4 days
# Experimental: as §1, §2
# [27] = system: NCI-H522; experiment: Proliferation assay, Method 2 (Vybrant MTT); conditions: Homo sapiens, NCI-H522 (non-small-cell lung carcinoma)
# [28] = system: BT-549; experiment: Proliferation assay, Method 2 (Vybrant MTT); conditions: Homo sapiens, BT-549 breast tumour cell line
# [29] = system: NCI-H2170; experiment: Proliferation assay, Method 2 (Vybrant MTT); conditions: Homo sapiens
# [30] = system: MDA-MB-453; experiment: Proliferation assay, Method 2 (Vybrant MTT); conditions: Homo sapiens, MDA-MB-453 breast tumour cell line
# [31] = system: NCI-H1437; experiment: Proliferation assay, Method 2 (Vybrant MTT); conditions: Homo sapiens, NCI-H1437 (non-small-cell lung carcinoma)
# [32] = system: NCI-H2030; experiment: Proliferation assay, Method 2 (Vybrant MTT); conditions: Homo sapiens, NCI-H2030 (non-small-cell lung carcinoma)
# [33] = system: NCI-H810; experiment: Proliferation assay, Method 2 (Vybrant MTT); conditions: Homo sapiens, NCI-H810 (non-small-cell lung carcinoma)
# [34] = system: NCI-H1838; experiment: Proliferation assay, Method 2 (Vybrant MTT); conditions: Homo sapiens, NCI-H1838 (non-small-cell lung carcinoma)
# [35] = system: T-47D; experiment: Proliferation assay, Method 2 (Vybrant MTT); conditions: Homo sapiens, T47D, T-47D breast tumour cell line
# [36] = system: NCI-H1975; experiment: Proliferation assay (listed under Method 1 and Method 2); conditions: Homo sapiens; NCI-H1975 (non-small-cell lung carcinoma); method 1 or 2
# Experimental: as §1, §2
# [37] = system: NCI-H460; experiment: as above; conditions: Homo sapiens; NCI-H460 (non-small-cell lung carcinoma); method 1 or 2
# Experimental: as §1, §2
# [38] = system: A549; experiment: as above; conditions: Homo sapiens; A549 (non-small-cell lung carcinoma); method 1 or 2
# Experimental: as §1, §2
# [39] = system: MCF 10A; experiment: as above; conditions: Homo sapiens; MCF 10A breast cell line; method 1 or 2
# Experimental: as §1, §2
# [40] = system: NCI-H69; experiment: as above; conditions: Homo sapiens; NCI-H69 (small-cell lung carcinoma); method 1 or 2
# Experimental: as §1, §2
# [41] = system: BT-474; experiment: Proliferation assay, Method 2 (Vybrant MTT); conditions: Homo sapiens, BT-474 breast tumour cell line
# [42] = system: NCI-H1581; experiment: Proliferation assay, Method 2 (Vybrant MTT); conditions: Homo sapiens, NCI-H1581 (non-small-cell lung carcinoma)
# [43] = system: SK-MES-1; experiment: Proliferation assay, Method 2 (Vybrant MTT); conditions: Homo sapiens, SK-MES-1 (squamous-cell carcinoma)
# [44] = system: ZR-75-1; experiment: Proliferation assay, Method 2 (Vybrant MTT); conditions: Homo sapiens, ZR-75-1 breast tumour cell line
# [45] = system: NCI-H1703; experiment: Proliferation assay, Method 2 (Vybrant MTT); conditions: Homo sapiens, NCI-H1703 (non-small-cell lung carcinoma)
# [46] = system: NCI-H23; experiment: Proliferation assay, Method 2 (Vybrant MTT); conditions: Homo sapiens, NCI-H23 (non-small-cell lung carcinoma)
# [47] = system: NCI-H358; experiment: Proliferation assay, Method 2 (Vybrant MTT); conditions: Homo sapiens, NCI-H358 (non-small-cell lung carcinoma)
# [48] = system: MDA-MB-231; experiment: Proliferation assay, Method 2 (Vybrant MTT); conditions: Homo sapiens, MDA-MB-231 breast tumour cell line
# [49] = system: NCI-H441; experiment: Proliferation assay, Method 2 (Vybrant MTT); conditions: Homo sapiens, NCI-H441 (papillary lung carcinoma)
# [50] = system: KPL-1; experiment: Proliferation assay, Method 2 (Vybrant MTT); conditions: Homo sapiens, KPL-1 breast tumour cell line
# [51] = system: DU-4475; experiment: Proliferation assay, Method 2 (Vybrant MTT); conditions: Homo sapiens, DU-4475 breast tumour cell line
compound,measurement,setting,value
"C[C@@H](O)[C@@H](C)Oc1nc(Nc2ccc([S@](=N)(=O)C3CC3)cc2)ncc1C(F)(F)F [Compound A, (2R,3R)-3-{[2-{[4-(R-cyclopropylsulphonimidoyl)phenyl]amino}-5-(trifluoromethyl)pyrimidin-4-yl]oxy}butan-2-ol]",IC50,[1],59.1 nM
same,IC50,[2],38.1 nM
same,IC50,[3],28 nM
same,IC50,[4],54.6 nM
same,IC50,[5],36.4 nM
same,IC50,[6],25 nM
same,IC50,[7],28.8 nM
same,IC50,[8],45 nM
same,IC50,[9],16.8 nM
same,IC50,[10],22.5 nM
same,IC50,[11],69.4 nM
same,IC50,[12],52.1 nM
same,IC50,[13],53.1 nM
same,IC50,[14],12 nM
same,IC50,[15],8 nM
same,IC50,[16],29 nM
same,IC50,[17],13 nM
same,IC50,[18],26 nM
same,IC50,[19],18 nM
same,IC50,[20],15 nM
same,IC50,[21],14 nM
same,IC50,[22],20 nM
same,IC50,[23],21 nM
same,IC50,[24],16 nM
same,IC50,[25],15 nM
same,IC50,[26],25 nM
same,IC50,[27],65.4 nM
same,IC50,[28],84.1 nM
same,IC50,[29],48.7 nM
same,IC50,[30],15.1 nM
same,IC50,[31],69.9 nM
same,IC50,[32],17.7 nM
same,IC50,[33],9.01 nM
same,IC50,[34],15.9 nM
same,IC50,[35],33.8 nM
same,IC50,[36],24 nM
same,IC50,[37],27 nM
same,IC50,[38],31 nM
same,IC50,[39],20 nM
same,IC50,[40],27 nM
same,IC50,[41],42.6 nM
same,IC50,[42],53.8 nM
same,IC50,[43],26.5 nM
same,IC50,[44],32.5 nM
same,IC50,[45],53.6 nM
same,IC50,[46],45.4 nM
same,IC50,[47],19.4 nM
same,IC50,[48],20.2 nM
same,IC50,[49],10 nM
same,IC50,[50],6.44 nM
same,IC50,[51],37.3 nM
